Bridge positions count the residues as written; N and C are the ends. Square brackets hold non-standard residues; d marks the D form. Peptide text beside a SMILES is read from it. * marks the point of attachment. Octanoyl = CCCCCCCC(=O)*; Dab = NCC[C@H](N)C(=O)O; Abu = CC[C@H](N)C(=O)O
Experiments:
Escherichia coli [1] = assay: Antimicrobial activity against Escherichia coli IH3080 assessed as zone of inhibition at 10 ug after 18 hrs by disk diffusion method; type: functional
Acinetobacter baumannii [2] = assay: Antimicrobial activity against Acinetobacter baumannii ATCC 19606 assessed as zone of inhibition at 10 ug after 18 hrs by disk diffusion method in presence of 1 ug/ml rifampin; type: functional
Escherichia coli [3] = assay: Antimicrobial activity against Escherichia coli IH3080 assessed as zone of inhibition at 10 ug after 18 hrs by disk diffusion method in presence of 1 ug/ml rifampin; type: functional
Pseudomonas aeruginosa [4] = assay: Antimicrobial activity against Pseudomonas aeruginosa ATCC 27853 assessed as zone of inhibition at 10 ug after 18 hrs by disk diffusion method in presence of 1 ug/ml rifampin; type: functional
Pseudomonas aeruginosa [5] = assay: Antimicrobial activity against Pseudomonas aeruginosa ATCC 27853 assessed as zone of inhibition at 10 ug after 18 hrs by disk diffusion method; type: functional
Acinetobacter baumannii [6] = assay: Antimicrobial activity against Acinetobacter baumannii ATCC 19606 assessed as zone of inhibition at 10 ug after 18 hrs by disk diffusion method; type: functional
Acinetobacter baumannii [7] = assay: Antimicrobial activity against Acinetobacter baumannii ATCC 19606 by Etest method in presence of 4 ug/ml NAB741; type: functional
Klebsiella pneumoniae [8] = assay: Ratio of MIC for Klebsiella pneumoniae ATCC 13883 to MIC for Klebsiella pneumoniae ATCC 13883 in presence of 4 ug/ml of NAB741; type: functional
Escherichia coli [9] = assay: Antimicrobial activity against Escherichia coli IH3080 by Etest method in presence of 4 ug/ml NAB741; type: functional
Klebsiella pneumoniae [10] = assay: Antimicrobial activity against Klebsiella pneumoniae ATCC 13883 by Etest method in presence of 4 ug/ml NAB741; type: functional
Escherichia coli [11] = assay: Antimicrobial activity against Escherichia coli ATCC 25922 by Etest method in presence of 4 ug/ml NAB741; type: functional
Escherichia coli [12] = assay: Ratio of MIC for Escherichia coli IH3080 to MIC for Escherichia coli IH3080 in presence of 4 ug/ml of NAB741; type: functional
Escherichia coli [13] = assay: Ratio of MIC for Escherichia coli ATCC 25922 to MIC for Escherichia coli ATCC 25922 in presence of 4 ug/ml of NAB741; type: functional
Acinetobacter baumannii [14] = assay: Ratio of MIC for Acinetobacter baumannii ATCC 19606 to MIC for Acinetobacter baumannii ATCC 19606 in presence of 4 ug/ml of NAB741; type: functional
Enterobacter cloacae [15] = assay: Ratio of MIC for Enterobacter cloacae ATCC 23355 to MIC for Enterobacter cloacae ATCC 23355 in presence of 4 ug/ml of NAB741; type: functional
Enterobacter cloacae [16] = assay: Antimicrobial activity against Enterobacter cloacae ATCC 23355 by Etest method in presence of 4 ug/ml NAB741; type: functional
[17] = Drug level in Sprague-Dawley rat urine at 1 mg/kg, iv; type: ADME, organism-based; set-up: dose 1 mg/kg, route intravenous; conditions: Sprague-Dawley, urine, read-out: Drug uptake

For `CC(C)C[C@@H]1NC(=O)[C@@H](Cc2ccccc2)NC(=O)[C@H](CCN)NC(=O)[C@@H](NC(=O)[C@H](CCN)NC(=O)[C@@H](N)[C@@H](C)O)CCNC(=O)[C@H]([C@@H](C)O)NC(=O)[C@H](CCN)NC(=O)[C@H](CCN)NC1=O` [POLYMYXIN B NONAPEPTIDE] (H-T[Dab][Dab][Dab][dF]L[Dab][Dab]T; lactam 3-C), the “inhibition zone (IZ)” value (Escherichia coli [1]) was 3 mm2, the “inhibition zone (IZ)” value (Acinetobacter baumannii [2]) was 155 mm2 and the “inhibition zone (IZ)” value (Escherichia coli [3]) was 143 mm2. For the same molecule, the “inhibition zone (IZ)” value (Pseudomonas aeruginosa [4]) was 169 mm2, the “inhibition zone (IZ)” value (Pseudomonas aeruginosa [5]) was 144 mm2 and the “inhibition zone (IZ)” value (Acinetobacter baumannii [6]) was 3 mm2.
Work on `CC(=O)O[C@H]1C[C@@]2(C)[C@@H](C[C@@H](O)[C@H]3[C@@]4(C)CC[C@@H](O)[C@@H](C)[C@@H]4CC[C@@]32C)/C1=C(\CCC=C(C)C)C(=O)O` [FUSIDIC ACID] yielded an MIC (Acinetobacter baumannii [7]) of 6 µg/mL, a Ratio (Klebsiella pneumoniae [8]) greater than 5 and an MIC (Escherichia coli [9]) of 2 µg/mL. For the same molecule, the MIC (Klebsiella pneumoniae [10]) was 48 µg/mL, the MIC (Escherichia coli [11]) was 1.5 µg/mL and the Ratio (Escherichia coli [12]) was greater than 130. For the same molecule, the Ratio (Escherichia coli [13]) was greater than 170, the Ratio (Acinetobacter baumannii [14]) was greater than 43 and the Ratio (Enterobacter cloacae [15]) was greater than 130. The MIC (Enterobacter cloacae [16]) was 2 µg/mL.
For `CC(=O)N[C@H](C(=O)NCCCC(=O)N[C@H]1CCNC(=O)[C@H]([C@@H](C)O)NC(=O)[C@H](CCN)NC(=O)[C@H](CCN)NC(=O)[C@H](CC(C)C)NC(=O)[C@@H](Cc2ccccc2)NC(=O)[C@H](CCN)NC1=O)[C@@H](C)O`, the “inhibition zone (IZ)” value (Escherichia coli [1]) was 3 mm2, the “inhibition zone (IZ)” value (Acinetobacter baumannii [2]) was 9 mm2 and the “inhibition zone (IZ)” value (Escherichia coli [3]) was 8 mm2. The “inhibition zone (IZ)” value (Pseudomonas aeruginosa [4]) was 3 mm2, the “inhibition zone (IZ)” value (Pseudomonas aeruginosa [5]) was 3 mm2 and the “inhibition zone (IZ)” value (Acinetobacter baumannii [6]) was 3 mm2.
Work on `C/C(=C\C(=O)OCCCCCCCCC(=O)O)C[C@@H]1OC[C@H](C[C@@H]2O[C@H]2[C@@H](C)[C@H](C)O)[C@@H](O)[C@H]1O` [MUPIROCIN] yielded an MIC (Acinetobacter baumannii [7]) of 512 µg/mL, a Ratio (Klebsiella pneumoniae [8]) of 8 and an MIC (Escherichia coli [9]) of 1 µg/mL. The MIC (Klebsiella pneumoniae [10]) was 6 µg/mL, the MIC (Escherichia coli [11]) was 0.75 µg/mL and the Ratio (Escherichia coli [12]) was 24. For the same molecule, the Ratio (Escherichia coli [13]) was 64, the Ratio (Acinetobacter baumannii [14]) was less than 2 and the Ratio (Enterobacter cloacae [15]) was 50. For the same molecule, the MIC (Enterobacter cloacae [16]) was 0.25 µg/mL.
POLYMYXIN B gave an inhibition zone (IZ) (Escherichia coli [1]) of 129 mm2, an inhibition zone (IZ) (Acinetobacter baumannii [2]) of 202 mm2 and an inhibition zone (IZ) (Escherichia coli [3]) of 133 mm2. It also gave an inhibition zone (IZ) (Pseudomonas aeruginosa [4]) of 166 mm2, an inhibition zone (IZ) (Pseudomonas aeruginosa [5]) of 151 mm2 and an inhibition zone (IZ) (Acinetobacter baumannii [6]) of 185 mm2.
With `CN[C@H](C(=O)N[C@H](CO)C(=O)N[C@H]1CCNC(=O)[C@H]([C@@H](C)O)NC(=O)[C@H](CCN)NC(=O)[C@H](CCN)NC(=O)[C@H](CC(C)C)NC(=O)[C@@H](Cc2ccccc2)NC(=O)[C@H](CCN)NC1=O)[C@@H](C)O` the “inhibition zone (IZ)” value (Escherichia coli [1]) was 3 mm2, the “inhibition zone (IZ)” value (Acinetobacter baumannii [2]) was 79 mm2 and the “inhibition zone (IZ)” value (Escherichia coli [3]) was 130 mm2. For the same molecule, the “inhibition zone (IZ)” value (Pseudomonas aeruginosa [4]) was 38 mm2, the “inhibition zone (IZ)” value (Pseudomonas aeruginosa [5]) was 7 mm2 and the “inhibition zone (IZ)” value (Acinetobacter baumannii [6]) was 3 mm2.
Work on `CN[C@H](CC(C)C)C(=O)N[C@H]1C(=O)N[C@@H](CC(N)=O)C(=O)N[C@H]2C(=O)N[C@H]3C(=O)N[C@H](C(=O)N[C@H](C(=O)O)c4cc(O)cc(O)c4-c4cc3ccc4O)[C@H](O)c3ccc(c(Cl)c3)Oc3cc2cc(c3O[C@@H]2O[C@H](CO)[C@@H](O)[C@H](O)[C@H]2O[C@H]2C[C@](C)(N)[C@H](O)[C@H](C)O2)Oc2ccc(cc2Cl)[C@H]1O` [VANCOMYCIN] yielded an MIC (Acinetobacter baumannii [7]) of 24 µg/mL, a Ratio (Klebsiella pneumoniae [8]) greater than 2 and an MIC (Escherichia coli [9]) of 16 µg/mL. The MIC (Klebsiella pneumoniae [10]) was 128 µg/mL, the MIC (Escherichia coli [11]) was 8 µg/mL and the Ratio (Escherichia coli [12]) was greater than 16. It also gave a Ratio (Escherichia coli [13]) greater than 32, a Ratio (Acinetobacter baumannii [14]) greater than 11 and a Ratio (Enterobacter cloacae [15]) greater than 170. It also gave an MIC (Enterobacter cloacae [16]) of 1.5 µg/mL.
With `CC(=O)N[C@H](C(=O)N[C@H](CC(N)=O)C(=O)N[C@H]1CCNC(=O)[C@H]([C@@H](C)O)NC(=O)[C@H](CCN)NC(=O)[C@H](CCN)NC(=O)[C@H](CC(C)C)NC(=O)[C@@H](Cc2ccccc2)NC(=O)[C@H](CCN)NC1=O)[C@@H](C)O` the “inhibition zone (IZ)” value (Escherichia coli [1]) was 3 mm2, the “inhibition zone (IZ)” value (Acinetobacter baumannii [2]) was 154 mm2 and the “inhibition zone (IZ)” value (Escherichia coli [3]) was 110 mm2. For the same molecule, the “inhibition zone (IZ)” value (Pseudomonas aeruginosa [4]) was 3 mm2, the “inhibition zone (IZ)” value (Pseudomonas aeruginosa [5]) was 3 mm2 and the “inhibition zone (IZ)” value (Acinetobacter baumannii [6]) was 3 mm2.
For `CCCCCCCC(=O)N[C@H](C(=O)N[C@@H](CC)C(=O)N[C@H]1CCNC(=O)[C@H]([C@@H](C)O)NC(=O)[C@H](CCN)NC(=O)[C@H](CCN)NC(=O)[C@H](CC(C)C)NC(=O)[C@@H](Cc2ccccc2)NC(=O)[C@H](CCN)NC1=O)[C@@H](C)O` (Octanoyl-T[Abu][Dab][Dab][dF]L[Dab][Dab]T; lactam 3-C) [listing 1 of 2 here], the dose excreted [17] was 7.16%.
For `CC[C@H]1OC(=O)[C@H](C)[C@@H](O[C@H]2C[C@@](C)(OC)[C@@H](O)[C@H](C)O2)[C@H](C)[C@@H](O[C@@H]2O[C@H](C)C[C@H](N(C)C)[C@H]2O)[C@](C)(O)C[C@@H](C)CN(C)[C@H](C)[C@@H](O)[C@]1(C)O` [AZITHROMYCIN], the MIC (Acinetobacter baumannii [7]) was 1.5 µg/mL, the Ratio (Klebsiella pneumoniae [8]) was 11 and the MIC (Escherichia coli [9]) was 0.094 µg/mL. For the same molecule, the MIC (Klebsiella pneumoniae [10]) was 0.125 µg/mL, the MIC (Escherichia coli [11]) was 0.125 µg/mL and the Ratio (Escherichia coli [12]) was 8. The Ratio (Escherichia coli [13]) was 16, the Ratio (Acinetobacter baumannii [14]) was 21 and the Ratio (Enterobacter cloacae [15]) was 16. For the same molecule, the MIC (Enterobacter cloacae [16]) was 0.25 µg/mL.
For `CCCCCCCC(=O)N[C@H](C(=O)N[C@H](CO)C(=O)N[C@H]1CCNC(=O)[C@H]([C@@H](C)O)NC(=O)[C@H](CCN)NC(=O)[C@H](CCN)NC(=O)[C@H](CC(C)C)NC(=O)[C@@H](Cc2ccccc2)NC(=O)[C@H](CCN)NC1=O)[C@@H](C)O` (Octanoyl-T[dS][Dab][Dab][dF]L[Dab][Dab]T; lactam 3-C) [listing 1 of 2 here], the dose excreted [17] was 19.4%.
In the case of `CCCCCCCC(=O)N[C@H](C(=O)N[C@H](CO)C(=O)N[C@H]1CCNC(=O)[C@H]([C@@H](C)O)NC(=O)[C@H](CCN)NC(=O)[C@H](CCN)NC(=O)[C@H](CC(C)C)NC(=O)[C@@H](Cc2ccccc2)NC(=O)[C@H](CCN)NC1=O)[C@@H](C)O` (Octanoyl-T[dS][Dab][Dab][dF]L[Dab][Dab]T; lactam 3-C) [listing 2 of 2 here], the “inhibition zone (IZ)” value (Escherichia coli [1]) is reported as 170 mm2, the “inhibition zone (IZ)” value (Acinetobacter baumannii [2]) is reported as 395 mm2 and the “inhibition zone (IZ)” value (Escherichia coli [3]) is reported as 212 mm2. For the same molecule, the “inhibition zone (IZ)” value (Pseudomonas aeruginosa [4]) was 87 mm2, the “inhibition zone (IZ)” value (Pseudomonas aeruginosa [5]) was 81 mm2 and the “inhibition zone (IZ)” value (Acinetobacter baumannii [6]) was 161 mm2.
With `CCCCCCCC(=O)N[C@H](C(=O)N[C@@H](CC)C(=O)N[C@H]1CCNC(=O)[C@H]([C@@H](C)O)NC(=O)[C@H](CCN)NC(=O)[C@H](CCN)NC(=O)[C@H](CC(C)C)NC(=O)[C@@H](Cc2ccccc2)NC(=O)[C@H](CCN)NC1=O)[C@@H](C)O` (Octanoyl-T[Abu][Dab][Dab][dF]L[Dab][Dab]T; lactam 3-C) [listing 2 of 2 here] the “inhibition zone (IZ)” value (Escherichia coli [1]) was 32 mm2, the “inhibition zone (IZ)” value (Acinetobacter baumannii [2]) was 252 mm2 and the “inhibition zone (IZ)” value (Escherichia coli [3]) was 206 mm2. For the same molecule, the “inhibition zone (IZ)” value (Pseudomonas aeruginosa [4]) was 55 mm2, the “inhibition zone (IZ)” value (Pseudomonas aeruginosa [5]) was 2 mm2 and the “inhibition zone (IZ)” value (Acinetobacter baumannii [6]) was 3 mm2.
